In paper PMC6099102, “Effect of the Nature of Donor Atoms on the Thermodynamic, Kinetic and Relaxation Properties of Mn(II) Complexes Formed With Some Trisubstituted 12-Membered Macrocyclic Ligands” (Frontiers in Chemistry, 2018):
Like-named read-outs stand apart in the source and are kept apart here. Marks after values point to notes of the source that are not given here. Each block holds one molecule with its values, some of them ahead of it.

What was measured:
[1] = cited from earlier work; for Σ log K2H: log K1H + log K2H
[2] = cited from earlier work; for log KML / log KMLH: Mn(II) complex; for pMn: pH = 7.4, cM = cL = 10^−5 M
[3] = Protonation constants of the ligands by pH-potentiometric titration; assay type: physicochemical; settings: for Σ log K2H: log K1H + log K2H
Protocol: (§1) The concentration of the ligand solutions was determined by pH-potentiometric titration in the presence and absence of an excess (5–10 fold) of MnCl2. For determining the protonation constants of the investigated ligands, pH-potentiometric titrations were made by means of 0.2 M standardized NaOH in 2 and 3 mM ligand solutions in the pH-range of 1.75–11.85. All equilibrium measurements were performed at a constant 0.15 M NaCl ionic strength at 25 °C. The protonation and the stability constants of the Mn(II) complexes were determined by pH-potentiometric titrations (DOTP, DO3A, PCTA, ODO3A, DO3P) while owing to the slow formation rates of Mn(II) complexes formed with amide type ligands, the stability constants of DOTAM, DOTMA, DO3AM^H, PC3AM^H, PC3AM^Gly, PC3AM^Pip complexes were determined by out-of-cell pH-potentiomertry in combination with ^1H relaxometry. The metal-to-ligand concentration ratio in the solutions was 1:1. For the calculation of protonation constants of the ligands and the log KMnL and log KMnLHi values of the complexes, mL–pH data pairs (50–180), obtained in the pH range of 1.75–11.85 or r1obs-pH data pairs (10–15 batch samples) obtained in the pH range of 2–4.5 were used (the samples were equilibrated for 4–7 days). The equilibrium constants characterizing the deprotonation that occurs at basic pH were determined from the data obtained via direct pH-potentiometric titrations performed on the pre-formed complexes.
(§2) The pH-potentiometric titrations were carried out with a Methrohm 888 Titrando titration workstation using a Metrohm-6.0233.100 combined electrode. The samples (6.00 mL) were thermostated at 25 °C. The samples were stirred and kept under inert gas (N2) to avoid the effect of CO2. KH-phthalate (pH = 4.005) and borax (pH = 9.177) buffers were used for the pH-calibration. The method proposed by Irving et al. was used for the calculation of H^+ concentrations from the measured pH values (Irving et al., [1967]). A 0.01 M HCl (I = 0.15 M set with NaCl) solution was titrated with standardized NaOH solution of known concentration (approx. 0.2 M). The correction factor obtained as difference of calculated pH and measured pH values was used to calculate the [H^+] in the samples. The ionic product of water was determined from the same titrations (HCl/NaOH) from the data collected in the pH range of 11.20–11.85.
The protonation and complexation equilibria of the macrocyclic ligands and their Mn(II) complexes have been studied by pH-potentiometric and relaxometric methods in the presence of 0.15 M NaCl whose ionic strength mimics the physiological conditions. The protonation constants of the ligands were evaluated by fitting the pH-V(mL) base data pairs collected in the pH-potentiometric titrations. The protonation equilibria of the ligands can be described by Equation (2). (a comparison of previously published log K^H data available in the Supplementary Material) together with the constants of H4DOTA, cis- and trans-H2DO2A derivatives given for comparison. (2) KiH=[HiL]/[Hi-1L][H^+],i=1,2,…

[4] = Stability and protonation constants and pMn of the Mn(II) complexes (pH-potentiometry and/or 1H relaxometry); assay type: physicochemical; settings: I = 0.15 M NaCl, 25 °C; for pMn: calculated at pH = 7.4, cM = cL = 10^−5 M; for log KML: stability constant of the Mn(II) complex; for log KMLH: protonation constant of the Mn(II) complex; for log KMHLH: second protonation constant of the Mn(II) complex; for log KMH2LH: third protonation constant of the Mn(II) complex; for log KMLOH: ternary hydroxido complex of Mn(II)
Protocol: as §1, §2
The relaxometric data were collected using a Bruker Minispec MQ20 NMR relaxometer. […] A datapoint plotted on figures represents an average of 5–6 T1 measurements (Figures S3–S9 in Supplementary Material). The data were fitted by using the molar r1p relaxivity value of the MnCl2 ([…] at 0.49 T and 25 °C). The equilibrium constants were calculated using the PSEQUAD program (Zékány and Nagypál, [1985]).
In order to gain information on the thermodynamic stability of the Mn(II) complexes, samples containing the metal and ligand in 1 to 1 molar ratio were studied by pH potentiometry or ^1H-relaxometry and in some cases by a combination of the two methods. The titration data were fitted by assuming the existence of [M(L)] and some protonated species ([M(HiL)]) at lower pH values. In some cases to fit the data obtained at higher pH, the formation of ternary hydroxido complexes ([M(L)(OH)]) were also included in the equilibrium model. The stability constants (KML) and the various protonation forms (KMHiL) of ML metal chelates are defined by Equations (3)–(5). However, a comparison of the stabilities of different complexes solely on the basic of their stability constants might be misleading because of the differences in ligand basicities. […] The pMn value accounts for the effect of proton competition (ligand basicity and complex protonation) on the stability constant essentially offering the same information as the conditional stability constant. Higher pMn values indicate a higher chelate stability at specified conditions. […]

[5] = Dissociation kinetics of the Mn(II) complexes (acid catalyzed dissociation, metal or ligand exchange reactions); assay type: physicochemical; settings: replacement of >NH in DO3A by etheric oxygen
Protocol: The dissociation reactions were followed by UV-vis spectrophotometry at 269 nm for the pyclen derivatives or at 300 nm for other complexes in the pH range of 3.6–5.0 for the exchange reactions with Cu(II) and up to pH = 6.0 when Zn(II) was used as a ligand scavenger. The acid catalyzed dissociation reactions were performed in the HCl concentration range of 0.05–1.0 M. The concentration of the complexes in the samples was 0.25 mM, while the concentration of the exchanging metal ion in the metal initiated transchelation reactions was 10–40 times higher to ensure pseudo-first-order conditions. Relaxometry was used to follow the transchelation reactions of [Mn(DOTAM)]^2+, [Mn(DO3AM^H)]^2+, [Mn(DO3A)]^−, [Mn(PCTA)]^− and [Mn(ODO3A)]^− with Cu(II)/Zn(II) ions in the pH range of 3.6–5.5 (Figures S17–S19 in Supplementary Material). The concentration of the complexes in these samples was set to 1.0–2.0 mM to achieve relatively large change during the dissociation reaction. […] The temperature was maintained at 25 °C and the ionic strength of the solutions was kept constant at 0.15 M with NaCl. N,N′-dimethyl- (DMP) and N-methyl-piperazine (NMP) buffers (log K2H = 4.18 and 4.90 at 25 °C and I = 0.15 M NaCl, respectively) were used at 0.05 M concentration to keep the pH constant. The pseudo-first-order rate constants (kobs) were calculated by fitting the absorbance or relaxivity-time data pairs to Equation (1) (1) Xt=(X0-Xe)e^-kobst+Xe where Xt, X0, and Xe are the absorbance or relaxivity at time t, at the start and at equilibrium, respectively. The calculations were performed with the computer program Micromath Scientist, version 2.0 (Salt Lake City, UT, USA) using a standard least-squares procedure.
The kinetic inertness of the Mn(II) complexes is the other important parameter for the complexes considered for use in vivo. The inertness of Mn(II) complexes formed with trisubstituted 12-memberd macrocyclic ligands were characterized either by studying the rates of acid catalyzed dissociation or by studying transmetallation reactions occurring between the complexes and a suitable exchanging metal ion such as Zn(II) or Cu(II). The demetallation reactions of labile complexes were performed at high pH by following the ligand exchange reactions with trans-CDTA and DTPA ligands. The demetallation reactions were studied in the presence of a large Cu(II)/Zn(II)/trans-CDTA/DTPA excess or by using high acid concentration in order to ensure pseudo-first-order conditions (Equation 6). Scheme 1 outlines all the possible dissociation pathways for the Mn(II) complexes. […] The reactions of the released Mn(II) and L ligand with the exchanging L' and M' reactants are assumed to be very rapid.
The rate of dissociation can be expressed by the Equation (6), where kobs is the pseudo-first-order rate constant and [Mn(L)]t is the total concentration of the species containing [Mn(L)] complex. The [Mn(L)]t will differ slightly depending on the experimental conditions (in the presence of a large metal or ligand excess). As [Mn(L)]t = [Mn(L)] + [Mn(HL)] + [Mn(H2L)] + [Mn(L)M] + [Mn(L)(L')] + [Mn(HL)(L')] for reactions performed at high pH (in the pH range of 3.0–5.0 often applied in Cu(II) exchange reactions) will involve fewer protonated species while the acid catalyzed dissociation reactions run in the strongly acidic media (0.1–1.0 M acid concentration range) predominantly contain protonated species ([Mn(L)]t = [Mn(L)]+[Mn(HL)]+[Mn(H2L)]). (6) -d[MnL]t/dt=kobs[MnL]t
By taking into account the various complex species and the possible reaction pathways as well as the protonation and stability constants of the reactive intermediates, the following equation (Equation 7) can be derived to describe the rates of dissociation. […]

[6] = ligand protonation constant, I = 0.15 M NaCl, 25 °C
[7] = buffer, 25 °C and I = 0.15 M NaCl
[8] = I = 0.1 M KCl, ref Aime et al., [2011]
[9] = 1H-relaxometry, ref Tircsó and Woods (in preparation)

Structure (SMILES): O=C(O)CN1CCNCCNCCN(CC(=O)O)CC1 [cis-DO2A]
Σ log K2H ([1]; ref Garda et al. ([2016])): 20.95
log K1H ([1]; ref Garda et al. ([2016])): 11.44
log K2H ([1]; ref Garda et al. ([2016])): 9.51
log K3H ([1]; ref Garda et al. ([2016])): 4.14
log K4H ([1]; ref Garda et al. ([2016])): 1.55
log KML ([2]; ref Garda et al. ([2016])): 15.68
log KMLH ([2]; ref Garda et al. ([2016])): 4.15
pMn ([2]; ref Garda et al. ([2016])): 7.27

Structure (SMILES): CN1CCN(C)CC1 [DMP, reference compound]
log K2H [3, 7]: 4.18

Structure (SMILES): O=C(O)CNC(=O)CN1CCN(CC(=O)NCC(=O)O)Cc2cccc(n2)CN(CC(=O)NCC(=O)O)CC1 [PC3AM^Gly]
log K1H [3, 6]: 8.85 (1)
log K2H [3, 6]: 4.55 (1)
log K3H [3, 6]: 3.81 (1)
log K4H [3, 6]: 3.21 (1)
log K5H [3, 6]: 2.80 (1)
log K6H [3, 6]: 1.38 (1)
Σ log K2H ([3]; I = 0.15 M NaCl, 25 °C): 13.40
pMn [4]: 8.37
log KMLH [4]: 3.98 (1)
log KMHLH [4]: 3.14 (1)
log KML [4]: 13.20 (1)
log KMLOH [4]: 10.67 (2)
log KMH2LH [4]: 2.87 (1)

Structure (SMILES): CN1CCNCC1 [NMP, N-methyl-piperazine, reference compound]
log K2H [3, 7]: 4.90

Structure (SMILES): O=C(CN1CCN(CC(=O)N2CCCCC2)Cc2cccc(n2)CN(CC(=O)N2CCCCC2)CC1)N1CCCCC1 [PC3AM^Pip]
log K1H [3, 6]: 8.74 (1)
log K2H [3, 6]: 5.77 (2)
log K3H [3, 6]: 1.42 (9)
Σ log K2H ([3]; I = 0.15 M NaCl, 25 °C): 14.51
pMn [4]: 8.86
log KML [4]: 14.05 (2)
log KMLOH [4]: 11.63 (2)

Structure (SMILES): O=C(O)CN1CCNCCN(CC(=O)O)CCNCC1 [trans-DO2A]
Σ log K2H ([1]; ref Garda et al. ([2016])): 21.44
log K1H ([1]; ref Garda et al. ([2016])): 11.69
log K2H ([1]; ref Garda et al. ([2016])): 9.75
log K3H ([1]; ref Garda et al. ([2016])): 3.97
log K4H ([1]; ref Garda et al. ([2016])): 2.68
log KML ([2]; ref Garda et al. ([2016])): 14.64
log KMLH ([2]; ref Garda et al. ([2016])): 4.40
pMn ([2]; ref Garda et al. ([2016])): 6.52

Structure (SMILES): CC(C(=O)O)N1CCN(C(C)C(=O)O)CCN(C(C)C(=O)O)CCN(C(C)C(=O)O)CC1 (stereo not drawn) [DOTMA]
log K1H [1, 8]: 11.72
log K2H [1, 8]: 9.06
log K3H [1, 8]: 4.74
log K4H [1, 8]: 5.59
log K5H [1, 8]: 1.92
Σ log K2H [1, 8]: 20.78
log KML [2, 9]: 18.37^[a]
log KMLH [2, 9]: 4.56^[a]
pMn ([2]; ref Tircsó and Woods (in preparation)): 8.69

Second part, led by results:

log K1H [3, 6]: 7.31 (1)
log K2H [3, 6]: 6.07 (1)
Σ log K2H ([3]; I = 0.15 M NaCl, 25 °C): 13.38
pMn [4]: 8.60
log KML [4]: 11.96 (1)
Structure (SMILES): NC(=O)CN1CCN(CC(N)=O)CCN(CC(N)=O)CCN(CC(N)=O)CC1 [DOTAM]

log K1H [3, 6]: 9.40 (5)
log K2H [3, 6]: 6.28 (8)
Σ log K2H ([3]; I = 0.15 M NaCl, 25 °C): 15.68
pMn [4]: 7.32
log KML [4]: 11.69 (2)
Structure (SMILES): NC(=O)CN1CCNCCN(CC(N)=O)CCN(CC(N)=O)CC1 [DO3AM^H]

log K1H ([3]; ligand protonation constant by 1H- and 31P-NMR, I = 0.15 M NaCl, 25 °C): 13.6 (2)^[a]
log K2H [3, 6]: 12.23 (3)
log K3H [3, 6]: 8.63 (5)
log K4H [3, 6]: 7.45 (4)
log K5H [3, 6]: 5.84 (5)
log K6H [3, 6]: 5.02 (5)
Σ log K2H ([3]; I = 0.15 M NaCl, 25 °C): 25.83
pMn [4]: 6.43
log KMLH [4]: 8.09 (1)
log KMHLH [4]: 7.79 (1)
log KML [4]: 18.98 (1)
log KMH2LH [4]: 6.74 (1)
Structure (SMILES): O=P(O)(O)CN1CCN(CP(=O)(O)O)CCN(CP(=O)(O)O)CCN(CP(=O)(O)O)CC1 [DOTP]

log K1H [3, 6]: 8.74 (2)
log K2H [3, 6]: 7.58 (2)
log K3H [3, 6]: 3.99 (3)
log K4H [3, 6]: 2.39(3)
Σ log K2H ([3]; I = 0.15 M NaCl, 25 °C): 16.32
pMn [4]: 8.57
log KMLH [4]: 2.77 (5)
log KML [4]: 13.88 (1)
Structure (SMILES): O=C(O)CN1CCOCCN(CC(=O)O)CCN(CC(=O)O)CC1 [ODO3A]
increase in the k1 value of the Mn(II) complex relative to DO3A [5]: 50 fold
